According to patent US6956040B2, “Oxazolidinone piperazinyl derivatives as potential antimicrobials” (Ranbaxy Laboratories Limited, priority 2001, dated 2005):
In brackets after ≈: the same amount, converted by molar mass. Like-named read-outs stand apart in the source and are kept apart here.

Tests used:
E. faecalis = test: Summary of in vitro activity (MIC) against E. faecalis; type: cell-based, Enterococcus faecalis; details: for MIC: read-out: Geometric Mean of in vitro activity (MIC)
Protocol: (§1) The compounds of the invention display antibacterial activity when tested by the agar incorporation method. The following minimum inhibitory concentrations (μg/ml) were obtained for representative compounds of the invention which are given below in the following tables.
(§2) Briefly, the compounds were dissolved in DMSO and doubling dilution of the compounds were incorporated into Meuller Hilton agar before solidification. Inoculum was prepared by suspending 4 to 5 colonies into 5 ml of normal saline solution and adjusting the turbidity to 0.5 Macfarland turbidity standard tables (1.5×10^8 CFU/ml), after appropriate dilutions, 10^4 CFU/spot was transfered into the surface of dried plate and incubated for 18 hours (24 hours for MRSN studies). The concentration showing no growth of the inoculated culture was recorded as the MIC. Appropriate ATCC standard strains were simultaneously tested and result recorded only when the MIC's against standard antibiotics were within the acceptable range.

MRSA 15187 = test: MIC, agar incorporation method; type: cell-based, Staphylococcus aureus
Excerpt: as §1
(§3) • 1) S.aureus ATCC 25923—Staphylococus aureus ATCC 25923 • 2) MRSA 15187—Methicillin Resistant Staphylococcus aureus • 3) Ent. faecalis ATCC 29212—Enterococcus faecalis ATCC 29212 • 4) Ent. faecium 6A—Enterococcus faecium 6A Van®, Cipro® • 5) Strep. pne. ATCC 6303—Streptococcus pneumoniae ATCC 6303 • 6) Strep. pyog. ATCC 19615—Streptococcus pyogenes • 7) S. epidermidis—Staphylococcus epidermidis ATCC 12228
as §2

S. aureus 25923 = test: MIC, agar incorporation method; type: cell-based, Staphylococcus aureus
Excerpt: as §1, §3, §2

S. pneumoniae = test: Summary of in vitro activity (MIC) against S. pneumoniae; type: cell-based, Streptococcus pneumoniae; details: for MIC: read-out: Geometric Mean of in vitro activity (MIC)
Protocol: as §1, §2

VRE 6A = test: MIC, agar incorporation method; type: cell-based, Enterococcus faecium
Excerpt: as §1, §3, §2

S. pneum AB 34 = test: MIC, agar incorporation method; type: cell-based, Streptococcus pneumoniae
Protocol: as §1, §2

MRSA 562 [1] = test: In vivo activity against MRSA 562 (ED50); parameters: species or system Staphylococcus aureus
E. faecalis 29212 = test: MIC, agar incorporation method; type: cell-based, Enterococcus faecalis
Excerpt: as §1, §3, §2

MRSA 562 [2] = test: MIC, agar incorporation method; type: cell-based, Staphylococcus aureus
Protocol: as §1, §2

MRSA 33 = test: MIC, agar incorporation method; type: cell-based, Staphylococcus aureus
Protocol: as §1, §2

S. pyogenes 19615 = test: MIC, agar incorporation method; type: cell-based, Streptococcus pyogenes
Excerpt: as §1, §3, §2

G+ve = test: Summary of in vitro activity (MIC) against G+ve bacteria; type: cell-based; details: for MIC: read-out: Geometric Mean of in vitro activity (MIC)
Protocol: as §1, §2

S. pneum 6303 = test: MIC, agar incorporation method; type: cell-based, Streptococcus pneumoniae
Excerpt: as §1, §3, §2

S. aureus = test: Summary of in vitro activity (MIC) against S. aureus; type: cell-based, Staphylococcus aureus; details: for MIC: read-out: Geometric Mean of in vitro activity (MIC)
Protocol: as §1, §2

[3] = Changes in MIC under different conditions: Agar MIC; type: cell-based; details: strain not given
Protocol: as §1, §2

[4] = Changes in MIC under different conditions: Broth MIC; type: cell-based; details: strain not given
[5] = S. aureus 25923, agar incorporation
[6] = S. pneum AB 34, agar incorporation
[7] = E. faecalis 29212, agar incorporation
[8] = S. pyogenes 19615, agar incorporation
[9] = S. pneum 6303, agar incorporation

## CC(=O)NC[C@H]1CN(c2ccc(N3CCN(C(=O)c4ccc([N+](=O)[O-])o4)CC3)c(F)c2)C(=O)O1 [Compound No. 06, (S)-N-[[3-Fluoro-4-[N-1[4-(5-nitro-2-furoyl)piperazinyl]phenyl]-2-oxo-5-oxazolidinyl]methyl]acetamide]
E. faecalis; E. faecalis
  Geometric Mean of in vitro activity (MIC): 0.92 µg/mL
E. faecalis; E. faecalis, Number 7
  MIC50: 1 µg/mL (≈ 2.1 µM)
  MIC90: 1 µg/mL (≈ 2.1 µM)
MRSA 15187; MRSA 15187, agar incorporation
  MIC: 0.5 µg/mL (≈ 1.05 µM)
S. aureus 25923; [5]
  MIC: 1 µg/mL (≈ 2.1 µM)
S. pneumoniae; S. pneumoniae
  Geometric Mean of in vitro activity (MIC): 1.27 µg/mL
S. pneumoniae; S. pneumoniae, Number 19
  MIC50: 2 µg/mL (≈ 4.21 µM)
  MIC90: 2 µg/mL (≈ 4.21 µM)
VRE 6A; VRE 6A, agar incorporation
  MIC: 1 µg/mL (≈ 2.1 µM)
S. pneum AB 34; [6]
  MIC: 2 µg/mL (≈ 4.21 µM)
MRSA 562 [1]
  ED50 (mg/kg body weight) PO: >25 mg/kg body weight
E. faecalis 29212; [7]
  MIC: 1 µg/mL (≈ 2.1 µM)
MRSA 562 [2]; MRSA 562, Table 5
  MIC: 1 µg/mL (≈ 2.1 µM)
MRSA 33; MRSA 33, agar incorporation
  MIC: 0.5 µg/mL (≈ 1.05 µM)
S. pyogenes 19615; [8]
  MIC: 2 µg/mL (≈ 4.21 µM)
G+ve; G+ve, Number 49
  MIC50: 1 µg/mL (≈ 2.1 µM)
  MIC90: 2 µg/mL (≈ 4.21 µM)
G+ve; Gram +ve
  Geometric Mean of in vitro activity (MIC): 0.79 µg/mL
S. pneum 6303; [9]
  MIC: 2 µg/mL (≈ 4.21 µM)
S. aureus; S. aureus
  Geometric Mean of in vitro activity (MIC): 0.74 µg/mL
S. aureus; S. aureus, Number 8
  MIC50: 1 µg/mL (≈ 2.1 µM)
  MIC90: 1 µg/mL (≈ 2.1 µM)

## CN[C@H](CC(C)C)C(=O)N[C@H]1C(=O)N[C@@H](CC(N)=O)C(=O)N[C@H]2C(=O)N[C@H]3C(=O)N[C@H](C(=O)N[C@H](C(=O)O)c4cc(O)cc(O)c4-c4cc3ccc4O)[C@H](O)c3ccc(c(Cl)c3)Oc3cc2cc(c3O[C@@H]2O[C@H](CO)[C@@H](O)[C@H](O)[C@H]2O[C@H]2C[C@](C)(N)[C@H](O)[C@H](C)O2)Oc2ccc(cc2Cl)[C@H]1O [Vancomycin, reference compound]
E. faecalis; Enterococcus faecalis
  MIC50: 16 µg/mL (≈ 11 µM)
  MIC90: 16 µg/mL (≈ 11 µM)
  MIC: 9.75 µg/mL (≈ 6.73 µM)
MRSA 15187; Staphylococcus aureus, MRSA
  MIC: 0.5 µg/mL (≈ 0.345 µM)
S. aureus 25923; Staphylococcus aureus, 25923
  MIC: 1 µg/mL (≈ 0.69 µM)
S. pneumoniae; Streptococcus pneumoniae
  MIC50: 0.5 µg/mL (≈ 0.345 µM)
  MIC90: 0.5 µg/mL (≈ 0.345 µM)
  MIC: 0.39 µg/mL (≈ 0.269 µM)
VRE 6A; Enterococcus, VRE
  MIC: > 16 µg/mL
[3]
  Agar MIC: 1 µg/mL
[4]
  Broth MIC +50% Sheep serum: 1 µg/mL
  Broth MIC Normal MH broth: 1 µg/mL
S. pneum AB 34; Streptococcus pneumoniae, AB34
  MIC: 0.25 µg/mL (≈ 0.173 µM)
E. faecalis 29212; Enterococcus faecalis, 29212
  MIC: 4 µg/mL (≈ 2.76 µM)
MRSA 562 [2]; MRSA 562, Table 5
  MIC: 0.5 µg/mL (≈ 0.345 µM)
MRSA 562 [2]; Staphylococcus aureus, MRSA
  MIC: 0.5 µg/mL (≈ 0.345 µM)
MRSA 33; Staphylococcus aureus, MRSA
  MIC: 0.5 µg/mL (≈ 0.345 µM)
S. pyogenes 19615; Streptococcus pyogenes, 19615
  MIC: 0.5 µg/mL (≈ 0.345 µM)
G+ve
  MIC50: 0.5 µg/mL (≈ 0.345 µM)
  MIC90: 16 µg/mL (≈ 11 µM)
  MIC: 0.93 µg/mL (≈ 0.642 µM)
S. pneum 6303; Streptococcus pneumoniae, 6303
  MIC: 0.5 µg/mL (≈ 0.345 µM)
S. aureus; Staphylococcus aureus
  MIC50: 1 µg/mL (≈ 0.69 µM)
  MIC90: 1 µg/mL (≈ 0.69 µM)
  MIC: 1 µg/mL (≈ 0.69 µM)

## CC(=O)NC[C@H]1CN(c2ccc(N3CC4C(C3)C4N(C)C(=O)Cc3cccs3)c(F)c2)C(=O)O1 (stereo partly drawn) [Compound No. 71, (S)-N-[[3-[3-Fluoro[4-[3-(1α, 5α, 6α)-6-[N-(2-thiopheneacetyl)-N-methyl]amino]-3-azabicyclo-[3.1.0]hexane]phenyl]-2-oxo-5-oxazolidinyl]methyl]acetamide]
MRSA 15187; MRSA 15187, agar incorporation
  MIC: 4 µg/mL (≈ 8.22 µM)
S. aureus 25923; [5]
  MIC: 4 µg/mL (≈ 8.22 µM)
VRE 6A; VRE 6A, agar incorporation
  MIC: 4 µg/mL (≈ 8.22 µM)
S. pneum AB 34; [6]
  MIC: 4 µg/mL (≈ 8.22 µM)
MRSA 562 [1]
  ED50 (mg/kg body weight) PO: >25 mg/kg body weight
E. faecalis 29212; [7]
  MIC: 4 µg/mL (≈ 8.22 µM)
MRSA 562 [2]; MRSA 562, Table 5
  MIC: 4 µg/mL (≈ 8.22 µM)
MRSA 33; MRSA 33, agar incorporation
  MIC: 4 µg/mL (≈ 8.22 µM)
S. pyogenes 19615; [8]
  MIC: 2 µg/mL (≈ 4.11 µM)
S. pneum 6303; [9]
  MIC: 4 µg/mL (≈ 8.22 µM)

## CC(=O)NC[C@H]1CN(c2ccc(N3CCOCC3)c(F)c2)C(=O)O1 [Linezolid, reference compound]
E. faecalis; Enterococcus faecalis, E. faecalis, Number 7, read-out: MIC50
  MIC50: 4 µg/mL (≈ 11.9 µM)
E. faecalis; Enterococcus faecalis, E. faecalis, Number 7, read-out: MIC90
  MIC90: 16 µg/mL (≈ 47.4 µM)
E. faecalis; Enterococcus faecalis, E. faecalis
  MIC: 4 µg/mL (≈ 11.9 µM)
MRSA 15187; Staphylococcus aureus, MRSA 15187, agar incorporation, read-out: MIC
  MIC: 1 µg/mL (≈ 2.96 µM)
S. aureus 25923; Staphylococcus aureus, S. aureus 25923, agar incorporation, read-out: MIC
  MIC: 2 µg/mL (≈ 5.93 µM)
S. pneumoniae; Streptococcus pneumoniae, S. pneumoniae, Number 19, read-out: MIC50
  MIC50: 0.5 µg/mL (≈ 1.48 µM)
S. pneumoniae; Streptococcus pneumoniae, S. pneumoniae, Number 19, read-out: MIC90
  MIC90: 2 µg/mL (≈ 5.93 µM)
S. pneumoniae; Streptococcus pneumoniae, S. pneumoniae
  MIC: 0.6 µg/mL (≈ 1.78 µM)
VRE 6A; Enterococcus, VRE 6A, agar incorporation, read-out: MIC
  MIC: 2 µg/mL (≈ 5.93 µM)
[3]
  Agar MIC: 2 µg/mL
[4]
  Broth MIC +50% Sheep serum: 2 µg/mL
  Broth MIC Normal MH broth: 1 µg/mL
S. pneum AB 34; Streptococcus pneumoniae, AB34, S. pneum AB 34, agar incorporation, read-out: MIC
  MIC: 4 µg/mL (≈ 11.9 µM)
E. faecalis 29212; Enterococcus faecalis, E. faecalis 29212, agar incorporation, read-out: MIC
  MIC: 2 µg/mL (≈ 5.93 µM)
MRSA 562 [2]; MRSA 562, Table 5
  MIC: 2 µg/mL (≈ 5.93 µM)
MRSA 562 [2]; Staphylococcus aureus, MRSA 562, agar incorporation, Table 1, read-out: MIC
  MIC: 2 µg/mL (≈ 5.93 µM)
MRSA 33; Staphylococcus aureus, MRSA 33, agar incorporation, read-out: MIC
  MIC: 2 µg/mL (≈ 5.93 µM)
S. pyogenes 19615; Streptococcus pyogenes, S. pyogenes 19615, agar incorporation, read-out: MIC
  MIC: 2 µg/mL (≈ 5.93 µM)
G+ve; G+ve, Number 49, read-out: MIC50
  MIC50: 2 µg/mL (≈ 5.93 µM)
G+ve; G+ve, Number 49, read-out: MIC90
  MIC90: 4 µg/mL (≈ 11.9 µM)
G+ve; Gram +ve
  MIC: 1.25 µg/mL (≈ 3.71 µM)
S. pneum 6303; Streptococcus pneumoniae, S. pneum 6303, agar incorporation, read-out: MIC
  MIC: 2 µg/mL (≈ 5.93 µM)
S. aureus; Staphylococcus aureus, S. aureus, Number 8, read-out: MIC50
  MIC50: 2 µg/mL (≈ 5.93 µM)
S. aureus; Staphylococcus aureus, S. aureus, Number 8, read-out: MIC90
  MIC90: 4 µg/mL (≈ 11.9 µM)
S. aureus; Staphylococcus aureus, S. aureus
  MIC: 2.38 µg/mL (≈ 7.05 µM)
